Assay results from the NIST ThermoML archive (doi:10.1021/je300405a).
Numbers after ± are expanded uncertainties.

Conditions: Liquid; for mass density: Vibrating tube method; for speed of sound: Pulse-echo method

CCCCCCCCCC(=O)OC [methyl decanoate]
Conditions	mass density, 343.15 K [kg/m3]	mass density, 353.15 K [kg/m3]	mass density, 363.15 K [kg/m3]	mass density, 373.15 K [kg/m3]	mass density, 383.15 K [kg/m3]	mass density, 393.15 K [kg/m3]	speed of sound, 343.15 K [m/s]	speed of sound, 363.15 K [m/s]	speed of sound, 383.15 K [m/s]	speed of sound, 403.15 K [m/s]
101.3 kPa	–	822.35 ± 1	814.51 ± 1	805.43 ± 1	797.49 ± 1	788.67 ± 1	–	–	–	–
10000 kPa	–	831.43 ± 1.1	823.75 ± 1.1	816.05 ± 1.1	808.37 ± 1.1	800.06 ± 1.1	–	1138.5 ± 4.7	1077.4 ± 4.5	1017.7 ± 4.3
20000 kPa	–	839.8 ± 1.1	832.39 ± 1.1	825.16 ± 1.1	818.07 ± 1.1	810.12 ± 1.1	–	1195.9 ± 5	1138.6 ± 4.7	1083.2 ± 4.5
30000 kPa	–	847.35 ± 1.1	840.33 ± 1.1	833.45 ± 1.1	826.67 ± 1.1	819.15 ± 1.1	–	1247.9 ± 5.2	1193.5 ± 4.9	1141.7 ± 4.7
40000 kPa	–	854.31 ± 1.1	847.71 ± 1.1	841.07 ± 1.1	834.58 ± 1.1	827.46 ± 1.1	–	1296.3 ± 5.4	1244.5 ± 5.2	1194.7 ± 5
50000 kPa	–	860.82 ± 1.1	854.36 ± 1.1	848.03 ± 1.1	841.72 ± 1.1	834.97 ± 1.1	–	1341.1 ± 5.5	1291.3 ± 5.3	1242.9 ± 5.1
60000 kPa	–	866.96 ± 1.1	860.65 ± 1.1	854.82 ± 1.1	848.65 ± 1.1	842.04 ± 1.1	–	1382.7 ± 5.7	1334.9 ± 5.5	1288.1 ± 5.3
70000 kPa	879.04 ± 1.1	872.65 ± 1.1	866.47 ± 1.1	860.9 ± 1.1	855.07 ± 1.2	848.64 ± 1.2	–	1421.6 ± 5.9	1375.4 ± 5.7	1330.6 ± 5.5
80000 kPa	884.27 ± 1.1	878.11 ± 1.1	872.03 ± 1.2	866.94 ± 1.2	861.06 ± 1.2	854.73 ± 1.2	1508.2 ± 6.2	1458.4 ± 6	1414.2 ± 5.8	1370.3 ± 5.7
90000 kPa	889.44 ± 1.2	883.27 ± 1.2	877.31 ± 1.2	872.3 ± 1.2	866.74 ± 1.2	860.61 ± 1.2	1541.7 ± 6.3	1493.8 ± 6.1	1450.6 ± 6	1407.7 ± 5.8
100000 kPa	894.26 ± 1.2	888.25 ± 1.2	882.47 ± 1.2	877.6 ± 1.2	872.09 ± 1.2	866.13 ± 1.2	1574.1 ± 9.6	1527.4 ± 9.3	1485.3 ± 9	1442.8 ± 8.8
110000 kPa	–	–	–	–	–	–	1606 ± 9.7	1559.7 ± 9.5	1518.9 ± 9.2	1476.6 ± 9
120000 kPa	–	–	–	–	–	–	1636.2 ± 9.9	1590.9 ± 9.7	1550.9 ± 9.4	1509.7 ± 9.2
130000 kPa	–	–	–	–	–	–	1665.9 ± 10	1620.7 ± 9.8	1581.2 ± 9.6	1541.7 ± 9.4
140000 kPa	–	–	–	–	–	–	1694 ± 10	1649.4 ± 10	1610.8 ± 9.8	1571.6 ± 9.6
150000 kPa	–	–	–	–	–	–	1721.2 ± 10	1677.2 ± 10	1641 ± 10	1600.1 ± 9.7
170000 kPa	–	–	–	–	–	–	1773.2 ± 11	1730.6 ± 10	1692.7 ± 10	1655.5 ± 10
190000 kPa	–	–	–	–	–	–	1822 ± 11	1780.4 ± 11	1743 ± 11	1706.6 ± 10
210000 kPa	–	–	–	–	–	–	1868.7 ± 11	1827.2 ± 11	1791.1 ± 11	1754.5 ± 11
